Measurements taken from US12024506B2, “Compounds” (Oxford University Innovation Limited, priority 2018, dated 2024).
Entries after “also recorded” stand apart in the source; their conditions may differ.

What was measured:
[1] = molecular target: T1, GST-human KRas166 (G12V) GPPNHP (Homo sapiens, UniProt P01116, G12V); experiment: KRas small-molecule screening by SPR (Biacore T200); assay type: binding; settings: compound 100 uM, 5% DMSO buffer; immobilised GST-KRas166 (G12V) GPPNHP
T1 construct: made in house; host or cells: E. coli C41(DE3)
In short: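 Biacore T200 screen: compounds at 100 uM final in 5% DMSO buffer (100 mM NaCl, 5 mM MgCl2) over GPPNHP-bound GST-KRas166 G12V captured by anti-GST antibody (10,000–15,000 RU) versus GST-only channel. Expected 1:1 Rmax 63 RU; DMSO solvent correction applied.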

[2] = molecular target: T2, KRASG12D interaction with PI3Kα, PI3Kγ, CRAF RBD, RALGDS RA (Homo sapiens, UniProt P01116, G12D); experiment: BRET2 cell assay, KRAS G12D-effector interaction; assay type: cell-based; settings: HEK293T cells, 5, 10 and 20 μM, 20 h
T2 construct: expressed in transfected cells; host or cells: HEK293T
Source text: The BRET ratio corresponds to the light emitted by the GFP2 acceptor constructs (515 nm±30) upon addition of Coelenterazine 400a divided by the light emitted by the RLuc8 donor constructs (410 nm±80). The normalized BRET ratio is the BRET ratio normalized to the DMSO negative and calculated as follows: (BRETcompound/BRETDMSO)×100, where BRETcompound corresponds to the BRET ratio for the compound-treated cells, BRETDMSO to the DMSO-treated cells. Each experiment was repeated at least three times. Statistical analyses were performed using a one-way ANOVA followed by Dunnett's post-tests (*P<0.05, **P<0.01, ***P<0.001, ****P<0.0001). Where error bars are presented, they correspond to mean values±SD of biological repeats (a-c).
650,000 HEK293T were seeded in each well of a 6 well plate. 24 hours later, cells were transfected with an appropriated BRET-based RAS biosensor (i.e. RAS-effector) using Lipofectamine 2000 transfection reagent (Thermo-Fisher). […] The final concentrations in the cells were 0, 5, 10 and 20 µM (therefore the intermediate 10× concentrations were 0, 50, 100 and 200 μM. 10 μL of 10× compounds were added in each well of the 96 well plate to 0, 5, 10 and 20 µM final concentrations (with final 0.2% DMSO each). Quadruplicates were performed for each point. Cells were left for an additional 20 hours at 37° C. before the BRET2 signal reading directly after addition of Coelenterazine 400a substrate (10 µM final) to cells (Cayman Chemicals, cat #16157). BRET2 reading was carried out on an Envision instrument (2103 Multilabel Reader, PerkinElmer) with the BRET2 Dual Emission optical module (515 nm±30 and 410 nm±80; PerkinElmer).
The ability of Example compound 56 to inhibit RAS-effector PPI using the above cell-based RAS-effector BRET2 assay was investigated. […] We determined the effect of compound 56 (labelled Abd-7) on the interaction of KRAS^G12D and with PI3Kα and PI3Kγ, CRAF RAS-binding domain (RBD) and RALGDS RAS-associating domain (RA) compared with the low affinity Reference Compound Abd-2 FIG. 1a). […]

Effect on BRET signal, KRAS G12D/effector interactions [2]	Compound	SPR Response Units [1] [Response Units]	Effect on BRET signal, KRAS G12D/effector interactions ([2]; formate salt)
	COc1cc(-c2cccc3c2OCCO3)ccc1Nc1cccc(CN(C)C)c1.O=CO [compound 72, [4-(2,3-Dihydro-benzo[1,4]dioxin-5-yl)-2-methoxy-phenyl]-(3-dimethylaminomethyl-phenyl)-amine formate salt]	56	decreases KRAS G12D/effector domain interactions in a dose-dependent manner; also recorded: dose response reduction in BRET signal
reduces the BRET signal	COc1nc(-c2cccc3c2OCCO3)ccc1Nc1ccc(CN(C)C)cc1 [compound 56, [6-(2,3-Dihydro-benzo[1,4]dioxin-5-yl)-2-methoxy-pyridin-3-yl]-(4-dimethylaminomethyl-phenyl)-amine]	116	
